Experimental data published in PubChem BioAssay (NCI).
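Where inhibition never reached the appropriate level, the endpoint shown equals the highest concentration tested. Otherwise, values were interpolated linearly from a five-concentration, 48-hour dose response in 96-well plates. Here, GI50 denotes the concentration required for 50% inhibition of growth. TGI marks complete inhibition of growth.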

Key:
Assay in all cases: DTP human tumour cell line panel, 48 h
786-0 renal = system: 786-0 renal
A498 renal = system: A498 renal
A549 NSCLC = system: A549 NSCLC
ACHN renal = system: ACHN renal
CAKI-1 renal = system: CAKI-1 renal
CCRF-CEM leukemia = system: CCRF-CEM leukemia
COLO 205 colon = system: COLO 205 colon
DLD-1 colon = system: DLD-1 colon
DMS 114 small cell lung = system: DMS 114 small cell lung
EKVX NSCLC = system: EKVX NSCLC
HCC-2998 colon = system: HCC-2998 colon
HCT-116 colon = system: HCT-116 colon
HCT-15 colon = system: HCT-15 colon
HL-60(TB) leukemia = system: HL-60(TB) leukemia
HOP-62 NSCLC = system: HOP-62 NSCLC
HOP-92 NSCLC = system: HOP-92 NSCLC
HT29 colon = system: HT29 colon
IGROV1 ovarian = system: IGROV1 ovarian
K-562 leukemia = system: K-562 leukemia
KM12 colon = system: KM12 colon
KM20L2 colon = system: KM20L2 colon
LOX IMVI melanoma = system: LOX IMVI melanoma
LXFL 529 NSCLC = system: LXFL 529 NSCLC
M14 melanoma = system: M14 melanoma
M19-MEL melanoma = system: M19-MEL melanoma
MALME-3M melanoma = system: MALME-3M melanoma
MOLT-4 leukemia = system: MOLT-4 leukemia
NCI-H226 lung = system: NCI-H226 lung
NCI-H23 lung = system: NCI-H23 lung
NCI-H460 lung = system: NCI-H460 lung
OVCAR-3 ovarian = system: OVCAR-3 ovarian
OVCAR-4 ovarian = system: OVCAR-4 ovarian
OVCAR-5 ovarian = system: OVCAR-5 ovarian
RPMI-8226 leukemia = system: RPMI-8226 leukemia
RXF 393 renal = system: RXF 393 renal
RXF-631 renal = system: RXF-631 renal
SF-268 CNS = system: SF-268 CNS
SF-295 CNS = system: SF-295 CNS
SF-539 CNS = system: SF-539 CNS
SK-MEL-2 melanoma = system: SK-MEL-2 melanoma
SK-MEL-28 melanoma = system: SK-MEL-28 melanoma
SK-MEL-5 melanoma = system: SK-MEL-5 melanoma
SK-OV-3 ovarian = system: SK-OV-3 ovarian
SN12C renal = system: SN12C renal
SNB-19 CNS = system: SNB-19 CNS
SNB-75 CNS = system: SNB-75 CNS
SNB-78 CNS = system: SNB-78 CNS
SR leukemia = system: SR leukemia
SW-620 colon = system: SW-620 colon
TK-10 renal = system: TK-10 renal
U251 CNS = system: U251 CNS
UACC-257 melanoma = system: UACC-257 melanoma
UACC-62 melanoma = system: UACC-62 melanoma
UO-31 renal = system: UO-31 renal
XF 498 CNS = system: XF 498 CNS
DMS 273 small cell lung = system: DMS 273 small cell lung
NCI-H522 lung = system: NCI-H522 lung
HOP-18 NSCLC = system: HOP-18 NSCLC
OVCAR-8 ovarian = system: OVCAR-8 ovarian

SMILES: CC(=O)c1cccc(NC(=O)C(=O)C(C2OC(=O)c3ccccc32)[N+](=O)[O-])c1 (centres undefined)
- TGI (786-0 renal): > 100 µM
- TGI (A498 renal): > 100 µM
- TGI (A549 NSCLC): > 100 µM
- TGI (ACHN renal): > 100 µM
- TGI (CAKI-1 renal): > 100 µM
- TGI (CCRF-CEM leukemia): > 100 µM
- TGI (COLO 205 colon): > 100 µM
- TGI (DLD-1 colon): > 100 µM
- TGI (DMS 114 small cell lung): > 100 µM
- TGI (EKVX NSCLC): > 100 µM
- TGI (HCC-2998 colon): > 100 µM
- TGI (HCT-116 colon): > 100 µM
- TGI (HCT-15 colon): > 100 µM
- TGI (HL-60(TB) leukemia): > 100 µM
- TGI (HOP-62 NSCLC): > 100 µM
- TGI (HOP-92 NSCLC): > 100 µM
- TGI (HT29 colon): > 100 µM
- TGI (IGROV1 ovarian): > 100 µM
- TGI (K-562 leukemia): > 100 µM
- TGI (KM12 colon): > 100 µM
- TGI (KM20L2 colon): > 100 µM
- TGI (LOX IMVI melanoma): > 100 µM
- TGI (LXFL 529 NSCLC): > 100 µM
- TGI (M14 melanoma): > 100 µM
- TGI (M19-MEL melanoma): > 100 µM
- TGI (MALME-3M melanoma): > 100 µM
- TGI (MOLT-4 leukemia): > 100 µM
- TGI (NCI-H226 lung): > 100 µM
- TGI (NCI-H23 lung): > 100 µM
- TGI (NCI-H460 lung): > 100 µM
- TGI (OVCAR-3 ovarian): > 100 µM
- TGI (OVCAR-4 ovarian): > 100 µM
- TGI (OVCAR-5 ovarian): > 100 µM
- TGI (RPMI-8226 leukemia): > 100 µM
- TGI (RXF 393 renal): > 100 µM
- TGI (RXF-631 renal): > 100 µM
- TGI (SF-268 CNS): > 100 µM
- TGI (SF-295 CNS): > 100 µM
- TGI (SF-539 CNS): > 100 µM
- TGI (SK-MEL-2 melanoma): > 100 µM
- TGI (SK-MEL-28 melanoma): > 100 µM
- TGI (SK-MEL-5 melanoma): > 100 µM
- TGI (SK-OV-3 ovarian): > 100 µM
- TGI (SN12C renal): > 100 µM
- TGI (SNB-19 CNS): > 100 µM
- TGI (SNB-75 CNS): > 100 µM
- TGI (SNB-78 CNS): > 100 µM
- TGI (SR leukemia): > 100 µM
- TGI (SW-620 colon): > 100 µM
- TGI (TK-10 renal): > 100 µM
- TGI (U251 CNS): > 100 µM
- TGI (UACC-257 melanoma): > 100 µM
- TGI (UACC-62 melanoma): > 100 µM
- TGI (UO-31 renal): > 100 µM
- TGI (XF 498 CNS): > 100 µM

SMILES: C1C[S][Ge]2([S]CCO1)[S]CCOCC[S]2
- GI50 (786-0 renal): > 100 µM
- TGI (786-0 renal): > 100 µM
- GI50 (A498 renal): > 100 µM
- TGI (A498 renal): > 100 µM
- GI50 (ACHN renal): > 100 µM
- TGI (ACHN renal): > 100 µM
- GI50 (CAKI-1 renal): > 100 µM
- TGI (CAKI-1 renal): > 100 µM
- GI50 (CCRF-CEM leukemia): > 100 µM
- TGI (CCRF-CEM leukemia): > 100 µM
- GI50 (COLO 205 colon): > 100 µM
- TGI (COLO 205 colon): > 100 µM
- GI50 (DLD-1 colon): > 100 µM
- TGI (DLD-1 colon): > 100 µM
- GI50 (DMS 114 small cell lung): > 100 µM
- TGI (DMS 114 small cell lung): > 100 µM
- GI50 (DMS 273 small cell lung): > 100 µM
- TGI (DMS 273 small cell lung): > 100 µM
- GI50 (HCC-2998 colon): > 100 µM
- TGI (HCC-2998 colon): > 100 µM
- GI50 (HCT-116 colon): > 100 µM
- TGI (HCT-116 colon): > 100 µM
- GI50 (HCT-15 colon): > 100 µM
- TGI (HCT-15 colon): > 100 µM
- GI50 (HL-60(TB) leukemia): > 100 µM
- TGI (HL-60(TB) leukemia): > 100 µM
- GI50 (HOP-62 NSCLC): > 100 µM
- TGI (HOP-62 NSCLC): > 100 µM
- GI50 (HOP-92 NSCLC): > 100 µM
- TGI (HOP-92 NSCLC): > 100 µM
- GI50 (IGROV1 ovarian): > 100 µM
- TGI (IGROV1 ovarian): > 100 µM
- GI50 (K-562 leukemia): > 100 µM
- TGI (K-562 leukemia): > 100 µM
- GI50 (LXFL 529 NSCLC): > 100 µM
- TGI (LXFL 529 NSCLC): > 100 µM
- GI50 (M14 melanoma): > 100 µM
- TGI (M14 melanoma): > 100 µM
- GI50 (M19-MEL melanoma): > 100 µM
- TGI (M19-MEL melanoma): > 100 µM
- GI50 (MALME-3M melanoma): > 100 µM
- TGI (MALME-3M melanoma): > 100 µM
- GI50 (MOLT-4 leukemia): > 100 µM
- TGI (MOLT-4 leukemia): > 100 µM
- GI50 (NCI-H226 lung): > 100 µM
- TGI (NCI-H226 lung): > 100 µM
- GI50 (NCI-H23 lung): > 100 µM
- TGI (NCI-H23 lung): > 100 µM
- GI50 (NCI-H522 lung): > 100 µM
- TGI (NCI-H522 lung): > 100 µM
- GI50 (OVCAR-4 ovarian): > 100 µM
- TGI (OVCAR-4 ovarian): > 100 µM
- GI50 (RPMI-8226 leukemia): > 100 µM
- TGI (RPMI-8226 leukemia): > 100 µM
- GI50 (RXF-631 renal): > 100 µM
- TGI (RXF-631 renal): > 100 µM
- GI50 (SF-268 CNS): > 100 µM
- TGI (SF-268 CNS): > 100 µM
- GI50 (SF-539 CNS): > 100 µM
- TGI (SF-539 CNS): > 100 µM
- GI50 (SK-MEL-2 melanoma): > 100 µM
- TGI (SK-MEL-2 melanoma): > 100 µM
- GI50 (SK-MEL-28 melanoma): > 100 µM
- TGI (SK-MEL-28 melanoma): > 100 µM
- GI50 (SK-OV-3 ovarian): > 100 µM
- TGI (SK-OV-3 ovarian): > 100 µM
- GI50 (SN12C renal): > 100 µM
- TGI (SN12C renal): > 100 µM
- GI50 (SNB-75 CNS): 2.51 µM
- TGI (SNB-75 CNS): 48.4 µM
- GI50 (SNB-78 CNS): > 100 µM
- TGI (SNB-78 CNS): > 100 µM
- GI50 (SR leukemia): > 100 µM
- TGI (SR leukemia): > 100 µM
- GI50 (UACC-62 melanoma): > 100 µM
- TGI (UACC-62 melanoma): > 100 µM
- GI50 (UO-31 renal): > 100 µM
- TGI (UO-31 renal): > 100 µM
- GI50 (XF 498 CNS): > 100 µM
- TGI (XF 498 CNS): > 100 µM

SMILES: COc1ccc2c(c1)[n+]([O-])c(-c1ccccc1)c(N)[n+]2[O-]
- TGI (786-0 renal): > 100 µM
- TGI (A498 renal): > 100 µM
- TGI (A549 NSCLC): > 100 µM
- TGI (ACHN renal): > 100 µM
- TGI (CAKI-1 renal): 92.3 µM
- TGI (CCRF-CEM leukemia): > 100 µM
- TGI (COLO 205 colon): 44.4 µM
- TGI (DLD-1 colon): > 100 µM
- TGI (DMS 114 small cell lung): 79.2 µM
- TGI (DMS 273 small cell lung): > 100 µM
- TGI (EKVX NSCLC): > 100 µM
- TGI (HCC-2998 colon): > 100 µM
- TGI (HCT-15 colon): > 100 µM
- TGI (HL-60(TB) leukemia): > 100 µM
- TGI (HOP-18 NSCLC): 97 µM
- TGI (HOP-62 NSCLC): 96.7 µM
- TGI (HT29 colon): > 100 µM
- TGI (IGROV1 ovarian): > 100 µM
- TGI (K-562 leukemia): > 100 µM
- TGI (KM12 colon): > 100 µM
- TGI (KM20L2 colon): > 100 µM
- TGI (LOX IMVI melanoma): > 100 µM
- TGI (LXFL 529 NSCLC): 98.7 µM
- TGI (M14 melanoma): 78.9 µM
- TGI (M19-MEL melanoma): > 100 µM
- TGI (MALME-3M melanoma): 47.2 µM
- TGI (MOLT-4 leukemia): > 100 µM
- TGI (NCI-H226 lung): > 100 µM
- TGI (NCI-H23 lung): 61.7 µM
- TGI (NCI-H460 lung): > 100 µM
- TGI (NCI-H522 lung): 34.4 µM
- TGI (OVCAR-3 ovarian): > 100 µM
- TGI (OVCAR-4 ovarian): > 100 µM
- TGI (OVCAR-5 ovarian): > 100 µM
- TGI (OVCAR-8 ovarian): > 100 µM
- TGI (RPMI-8226 leukemia): > 100 µM
- TGI (SF-268 CNS): > 100 µM
- TGI (SF-295 CNS): > 100 µM
- TGI (SF-539 CNS): > 100 µM
- TGI (SK-MEL-2 melanoma): > 100 µM
- TGI (SK-MEL-28 melanoma): 69.3 µM
- TGI (SK-MEL-5 melanoma): 35 µM
- TGI (SK-OV-3 ovarian): > 100 µM
- TGI (SN12C renal): > 100 µM
- TGI (SNB-19 CNS): > 100 µM
- TGI (SNB-75 CNS): > 100 µM
- TGI (SNB-78 CNS): > 100 µM
- TGI (SW-620 colon): > 100 µM
- TGI (TK-10 renal): > 100 µM
- TGI (U251 CNS): > 100 µM
- TGI (UACC-257 melanoma): 71.6 µM
- TGI (UACC-62 melanoma): > 100 µM
- TGI (UO-31 renal): > 100 µM
- TGI (XF 498 CNS): 82.6 µM
